Test results as given in patent US7825128B2, “Sulfoximine-substituted pyrimidines, processes for production thereof and use thereof as drugs” (Bayer Schering Pharma AG, priority 2005, dated 2010).
Each block holds one compound with its values, some of them ahead of it.

Legend:
Type in all cases: biochemical
[1] = biological target: T1, Tie-2 (Homo sapiens, UniProt Q02763); assay: Tie-2 kinase assay without prior activation of the kinase; conditions: 10 μM ATP
T1 construct: consisting of GST and the intracellular domain of Tie-2; made in house; host or cells: insect cells (Hi-5)
T1 sequence (Q02763 770-1124 limits assumed, species assumed): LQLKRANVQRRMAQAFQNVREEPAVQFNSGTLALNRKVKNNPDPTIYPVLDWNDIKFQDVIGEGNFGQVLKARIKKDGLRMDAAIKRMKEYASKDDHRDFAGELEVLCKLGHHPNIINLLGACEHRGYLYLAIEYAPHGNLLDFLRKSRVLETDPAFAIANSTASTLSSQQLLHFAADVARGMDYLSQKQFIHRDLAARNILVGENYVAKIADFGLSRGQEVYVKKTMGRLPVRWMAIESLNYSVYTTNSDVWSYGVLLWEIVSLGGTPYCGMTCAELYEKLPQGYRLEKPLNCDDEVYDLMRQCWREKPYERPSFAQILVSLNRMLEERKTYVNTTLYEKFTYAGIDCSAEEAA
From the text: For the kinase assay, a recombinant fusion protein expressed in insect cells (Hi-5) and purified by glutathione-sepharose affinity chromatography, consisting of GST and the intracellular domain of Tie-2, was used. Alternatively, commercially available GST-Tie2 fusion protein (Upstate Biotechnology, Dundee, Scotland) can be used. As the substrate for the kinase reaction, the biotinylated peptide biotin-Ahx-EPKDDAYPLYSDFG (C-terminus in amide form), which can be acquired e.g. from the company Biosyntan GmbH (Berlin-Buch, Germany) was used. […]
The resulting mixture was incubated for 1 hr at 22° C. in order to allow the binding of the biotinylated phosphorylated peptide to the streptavidin-XLent and the PT66-Eu-chelate. After this, the quantity of the phosphorylated substrate peptide was determined by measurement of the resonance energy transfer from the PT66-Eu chelate to the streptavidin-XLent. For this purpose, the fluorescence emission at 620 nm and 665 nm after excitation at 350 nm was measured in a HTRF meter, e.g. Rubystar (BMG Labtechnologies, Offenburg, Germany) or Viewlux (Perkin-Elmer). The ratio of the emissions at 665 nm and at […] was used as a measure of the quantity of the phosphorylated substrate peptide. […]

[2] = biological target: T2, CDK2/CycE (Homo sapiens, UniProt P24941); assay: CDK2/CycE kinase assay; conditions: 0.5 μM ATP, Histone IIIS substrate
T2 construct: GST; purchased ProQinase GmbH, Freiburg; host or cells: Baculovirus-infected Sf9 insect cells
Experimental: Recombinant CDK2- and CycE-GST fusion proteins, purified from Baculovirus-infected insect cells (Sf9), were purchased from ProQinase GmbH, Freiburg. Histone IIIS, which was used as the kinase substrate, was purchased from the Sigma Co.
CDK2/CycE (50 ng/data point) was incubated for 10 mins at 22° C. in the presence of different concentrations of test substances (0 μM, and within the range 0.01-100 μM) in assay buffer [50 mM tris/HCl pH8.0, 10 mM MgCl2, 0.1 mM Na orthovanadate, 1.0 mM dithiothreitol, 0.5 μM ATP, 10 μg/data point Histone IIIS, 0.2 μCi/data point ^33P-gamma ATP, 0.05% NP40, 1.25% dimethylsulfoxide]. The reaction was stopped by addition of EDTA solution (250 mM, pH8.0, 15 μl/data point).
15 μl of each reaction mixture was applied onto P30 filter strips (Wallac Co.), and non-incorporated ^33P-ATP was removed by washing the filter strips three times, for 10 mins each time, in 0.5% phosphoric acid. After drying of the filter strips for 1 hour at 70° C., the filter strips were covered with scintillator strips (MeltiLex™ A, Wallac Co.) and baked for 1 hour at 90° C. The quantity of incorporated ^33P (substrate phosphorylation) was determined by scintillation measurement in a gamma radiation meter (Wallac).

[3] = biological target: T3, ITK (Homo sapiens, UniProt Q08881); assay: ITK kinase assay a) (polyGT, FRET); conditions: polyGT substrate, 1.3 μM ATP
T3 sequence (Q08881 1-620): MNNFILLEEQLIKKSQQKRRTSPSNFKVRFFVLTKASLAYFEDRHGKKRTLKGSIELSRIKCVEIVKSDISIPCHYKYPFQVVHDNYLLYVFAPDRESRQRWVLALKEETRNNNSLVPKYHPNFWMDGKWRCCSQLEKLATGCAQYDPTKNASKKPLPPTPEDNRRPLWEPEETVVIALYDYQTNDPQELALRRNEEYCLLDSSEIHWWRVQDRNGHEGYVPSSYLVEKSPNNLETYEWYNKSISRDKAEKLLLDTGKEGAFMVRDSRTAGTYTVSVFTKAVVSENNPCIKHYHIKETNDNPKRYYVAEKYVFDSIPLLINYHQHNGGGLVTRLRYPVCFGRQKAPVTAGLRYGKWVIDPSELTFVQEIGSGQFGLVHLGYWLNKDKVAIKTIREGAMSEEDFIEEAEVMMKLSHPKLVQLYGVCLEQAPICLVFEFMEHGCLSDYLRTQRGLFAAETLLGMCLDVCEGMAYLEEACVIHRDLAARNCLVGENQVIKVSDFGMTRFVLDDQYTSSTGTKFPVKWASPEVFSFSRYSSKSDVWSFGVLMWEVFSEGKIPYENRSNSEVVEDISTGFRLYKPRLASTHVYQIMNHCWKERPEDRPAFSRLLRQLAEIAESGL
Experimental: For the determination of the kinase activity of ITK, the phosphorylation of polyGT is measured. In the kinase reaction, 106 pM ITK, 1.3 μM ATP and 20 nM polyGT are used. The reaction runs for 20 mins at RT and is then stopped by addition of EDTA (final concentration 60 mM).
The reaction buffer contains 50 mM TrisCL pH7.5, 10 mM MnCl2, 10% glycerine, 1 mM DTT, 0.1% Tween-20 and 0.1 mM Na3V04 and a protease inhibitor cocktail (“complete”, Roche diagnostics)
The measurement of the enzyme activity is effected by the determination of the phosphorylated substrates. The poly GT substrate used is biotinylated. The measurement is performed in a FRET-based assay, wherein an anti-phospho-tyrosine antibody recognises and binds the phosphorylated substrate poly GT.
The bound antibody is now in the spatial vicinity of a streptavidin-coupled fluorescence dye, which was bound to polyGt by biotin-streptavidin interaction. On excitation of the europium chelate on the phosphotyrosine antibody with […] UV light, light of the wavelength 620 nm is emitted, which in turn excites the dye XLent, which then emits light of longer wavelength (665 nm).
The detection reagents are added in 50 mM Hepes pH 7.0 with 0.1% BSA. […]
After addition of the detection reagents, the samples stand overnight at 4 degrees Celsius, in order to form the FRET-creating complexes. For example, an IC50=4 μM was measured for Example 1.7.

[4] = biological target: T4, human Itk (Homo sapiens, UniProt Q08881); assay: ITK kinase assay b) (Itk HTRF assay); conditions: biotinylated myelin basic protein, 10 μM ATP
T4 construct: kinase domain of the human Itk (amino acids 352-617); 6His (N); purchased Upstate (Dundee, UK); host or cells: baculovirus infected SF21 cells
T4 sequence (Q08881 352-617): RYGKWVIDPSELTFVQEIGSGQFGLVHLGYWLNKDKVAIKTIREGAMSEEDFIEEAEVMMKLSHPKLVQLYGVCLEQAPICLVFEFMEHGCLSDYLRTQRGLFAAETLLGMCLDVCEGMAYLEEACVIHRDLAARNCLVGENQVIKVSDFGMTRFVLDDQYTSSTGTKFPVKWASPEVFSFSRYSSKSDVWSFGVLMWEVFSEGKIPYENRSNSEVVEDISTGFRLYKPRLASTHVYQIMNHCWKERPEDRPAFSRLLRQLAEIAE
From the text: Itk inhibitory activity of compounds of the present invention was quantified employing the Itk HTRF assay as described in the following paragraphs.
N-terminal 6His-tagged recombinant kinase domain of the human Itk (amino acids 352-617) expressed in baculovirus infected SF21 cells and purified using Ni^2+/NTA agarose was purchased form Upstate (Dundee, UK) and used as kinase. As substrate for the kinase reaction the biotinylated myelin basic protein was used which can be purchased form GE Healthcare (Freiburg i. Br., Germany). […]
The resulting mixture was incubated 1 h at 22° C. to allow the binding of the biotinylated phosphorylated substrate to the streptavidine-XLent and the PT66-Eu-Chelate. Subsequently the amount of phosphorylated substrate was evaluated by measurement of the resonance energy transfer from the PT66-Eu-Chelate to the streptavidine-XLent. Therefore, the fluorescence emissions at 620 nm and 665 nm after excitation at 350 nm was measured in a HTRF reader, e.g. a Rubystar (BMG Labtechnologies, Offenburg, Germany) or a Viewlux (Perkin-Elmer). […] The data were normalised (enzyme reaction without inhibitor=0% inhibition, all other assay components but no enzyme=100% inhibition) and IC50 values were calculated by a 4 parameter fit using an inhouse software.

[5] = biological target: T5, Aurora-C (Homo sapiens, UniProt Q9UQB9); assay: Aurora-C kinase assay; conditions: 3 μM ATP
T5 construct: made in house; host or cells: transiently transfected HEK293 cells
T5 sequence (Q9UQB9 1-309): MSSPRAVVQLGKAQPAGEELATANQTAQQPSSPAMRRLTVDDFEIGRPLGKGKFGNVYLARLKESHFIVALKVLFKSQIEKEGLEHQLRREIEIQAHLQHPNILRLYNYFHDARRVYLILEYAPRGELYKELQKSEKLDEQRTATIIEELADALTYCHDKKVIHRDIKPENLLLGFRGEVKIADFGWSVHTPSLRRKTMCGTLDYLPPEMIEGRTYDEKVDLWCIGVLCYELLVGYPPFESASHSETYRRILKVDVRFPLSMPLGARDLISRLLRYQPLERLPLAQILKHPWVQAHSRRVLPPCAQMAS
Experimental: Recombinant Aurora-C Protein was expressed in transiently transfected HEK293 cells and then purified. As the kinase substrate, the biotinylated peptide with the amino acid sequence biotin-FMRLRRLSTKYRT, which was purchased from the company Jerini AG in Berlin, was used.
Aurora-C [5 nM in the test mixture, test volume 5 μl] was incubated for 90 mins at 22° C. in the presence of different concentrations of test substances (0 μM, and 10 data points within the range 0.001-20 μM in duplicate values) in assay buffer [25 mM HEPES pH 7.4, 0.5 mM MnCl2, 0.1 mM Na orthovanadate, 2.0 mM dithiothreitol, 0.05% bovine serum albumin (BSA), 0.01% Triton X-100, 3 μM adenosine trisphosphate (ATP), 0.67 nCi/μl gama-P33-ATP, 2.0 μM substrate peptide biotin-FMRLRRLSTKYRT, 1.0% dimethylsulfoxide]. The reaction was stopped by addition of 12.5 μl of an EDTA/detection solution [16 mM EDTA, 40 mM ATP, 0.08% Triton X-100, 4 mg/ml PVT-streptavidin-SPA beads (Amersham Co.)]. After 10 minutes' incubation, the SPA beads were pelleted by 10-minute centrifugation at 1000×G. The measurement was performed in a Topcount scintillation meter from the Perkin Elmer company. […] The IC50 values were determined by a 4-parameter fit using in-house software. […]

IC50 [1]: 3 µM
Structure (SMILES): CC[C@H](CO)Nc1nc(Nc2ccc(S(C)(=N)=O)c(Br)c2)ncc1-c1cccs1 (mixture of isomers) [Example 5.5, (RS)—S-{2-bromo-4-[(4-{[(R)-1-(hydroxymethyl)propyl]amino}-5-(2-thienyl)-pyrimidine-2-yl)amino]phenyl}-S-methylsulfoximide]

IC50 [2]: 3 µM
Structure (SMILES): CCS(=N)(=O)c1ccc(Nc2ncc(-c3ccsc3)c(N[C@H](CO)CC(C)C)n2)cc1 (mixture of isomers) [Example 5.3, (RS)—S-ethyl-S-(4-{[4-{[(S)-1-(hydroxymethyl)-3-methylbutyl]amino}-5-(3-thienyl)pyrimidine-2-yl]amino}phenyl)sulfoximide]

IC50 [3]: 4 µM
IC50 [4]: 0.4 µM
Structure (SMILES): CCOC(=O)N=S(C)(=O)c1ccc(Nc2ncc(-c3cccs3)c(N[C@H](CC)CO)n2)cc1Br (mixture of isomers) [Example 1.7, (RS)—S-{2-bromo-4-[(4-{[(R)-1-(hydroxymethyl)propyl]amino}-5-(2-thienyl)pyrimidine-2-yl)amino]phenyl}-N-(ethoxycarbonyl)-S-methylsulfoximide]

IC50 [5]: 2 µM
Structure (SMILES): CCOC(=O)N=S(C)(=O)c1ccc(Nc2ncc(-c3cccs3)c(N[C@H](C)CO)n2)cc1 (mixture of isomers) [Example 1.1, (RS)—N-(ethoxycarbonyl)-S-(4-{[4-{[(R)-2-hydroxy-1-methylethyl]amino}-5-(2-thienyl)pyrimidine-2-yl]amino}phenyl)-S-methylsulfoximide]
